According to US20210315971A1, “COMPOSITIONS ACTING AS PRO(RENIN) RECEPTOR ANTAGONISTS FOR THE TREATMENT OF NON-ALCOHOLIC FATTY LIVER DISEASE” (Board of Regents of the Nevada System of Higher Education …, priority 2018, published 2021):

Columns and labels:
Format in all cases: in vivo
Wild-type C57Bl/6J mice = experiment: High fat diet induced liver steatosis in mice, Oil Red O staining of liver; details: HFD 6 weeks; PRO20 27 ug/kg/d by subcutaneous osmotic pump for 4 weeks; HFD saline 17.57±3.23%, NFD 3.51±0.86%; N=4 mice/group
Protocol: Non-alcoholic fatty liver steatohepatitis (NASH) represents a diverse array of liver damage linked to obesity, metabolic syndrome, and diabetes. The mechanisms and the treatment for NASH remains lacking. The inventors hypothesized that PRR antagonism using PRO20 prevents NASH development. FIG. 6 illustrates subcutaneous administration of PRR antagonist, PRO20, attenuates high fat diet induced-liver steatosis in mice. Wild-type C57Bl/6J mice were treated with either with either HFD (60% calories from fat) or normal fat chow (NFD, 10% calories from fat) with matching calories for 6 weeks. Two week following diet modification, HFD mice were implanted with subcutaneous osmotic pump containing either PRO20 (27 ug/kg/d) or saline for 4 weeks. Liver tissues were processed for Oil Red 0 staining for lipid accumulation and quantified using Image)/FIJI software. Data were presented % of ORO staining to the total area. N=4 mice/group. *p<0.01 vs. NFD; #P<0.05 vs. HFD Saline; One-way ANOVA. 6 weeks of HFD (17.57±3.23%) induced a significant elevation on liver ORO staining compared with the liver from mice fed with NFD (3.51±0.86%, p=0.005). […] FIG. 7 illustrates subcutaneous administration of PRR antagonist, PRO20, attenuates peroxisome proliferator-activated receptor gamma (PPARγ).

[1] = test system: peroxisome proliferator-activated receptor gamma (PPARγ); experiment: Liver PPARγ in high fat diet mice; details: subcutaneous administration, high fat diet mice (FIG. 7)
Excerpt: FIG. 7 illustrates subcutaneous administration of PRR antagonist, PRO20, attenuates peroxisome proliferator-activated receptor gamma (PPARγ). […] PRO20 treatment prevents the upregulating of PPARγ in the liver supporting a mechanism for the beneficial role of PRO20 in preventing fatty liver development.
Non-alcoholic fatty liver steatohepatitis (NASH) represents a diverse array of liver damage linked to obesity, metabolic syndrome, and diabetes. The mechanisms and the treatment for NASH remains lacking. The inventors hypothesized that PRR antagonism using PRO20 prevents NASH development. FIG. 6 illustrates subcutaneous administration of PRR antagonist, PRO20, attenuates high fat diet induced-liver steatosis in mice. Wild-type C57Bl/6J mice were treated with either with either HFD (60% calories from fat) or normal fat chow (NFD, 10% calories from fat) with matching calories for 6 weeks. Two week following diet modification, HFD mice were implanted with subcutaneous osmotic pump containing either PRO20 (27 ug/kg/d) or saline for 4 weeks. Liver tissues were processed for Oil Red 0 staining for lipid accumulation and quantified using Image)/FIJI software. Data were presented % of ORO staining to the total area. N=4 mice/group. *p<0.01 vs. NFD; #P<0.05 vs. HFD Saline; One-way ANOVA. […]

[2] = test system: liver renin-angiotensin system; experiment: Liver renin-angiotensin system activation induced by high fat diet; details: subcutaneous administration, high fat diet mice (FIG. 8)

LPTDTTTFKRIFLKRMPSI (Synthetic (pro)renin receptor agonist peptide) [PRO20]
% of ORO staining to the total area (liver lipid accumulation) (Wild-type C57Bl/6J mice): 7.34±1.96%
Effect on liver PPARγ [1]: attenuates
Effect on liver renin-angiotensin system activation induced by high fat diet [2]: prevents activation
